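Cultured in 96-well plates, cells were exposed to test compound for 48 hours across five concentrations. GI50 marks 50% less growth. TGI: concentration producing complete growth inhibition.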
Legend:
Assay in all cases: NCI tumour cell line growth inhibition, 48 h
786-0 renal = tested on: 786-0 renal
A498 renal = tested on: A498 renal
A549 NSCLC = tested on: A549 NSCLC
ACHN renal = tested on: ACHN renal
BT-549 breast = tested on: BT-549 breast
CAKI-1 renal = tested on: CAKI-1 renal
CCRF-CEM leukemia = tested on: CCRF-CEM leukemia
COLO 205 colon = tested on: COLO 205 colon
DU-145 prostate = tested on: DU-145 prostate
EKVX NSCLC = tested on: EKVX NSCLC
HCC-2998 colon = tested on: HCC-2998 colon
HCT-116 colon = tested on: HCT-116 colon
HCT-15 colon = tested on: HCT-15 colon
HL-60(TB) leukemia = tested on: HL-60(TB) leukemia
HOP-62 NSCLC = tested on: HOP-62 NSCLC
HOP-92 NSCLC = tested on: HOP-92 NSCLC
HS 578T breast = tested on: HS 578T breast
HT29 colon = tested on: HT29 colon
IGROV1 ovarian = tested on: IGROV1 ovarian
K-562 leukemia = tested on: K-562 leukemia
KM12 colon = tested on: KM12 colon
LOX IMVI melanoma = tested on: LOX IMVI melanoma
M14 melanoma = tested on: M14 melanoma
MALME-3M melanoma = tested on: MALME-3M melanoma
MCF7 breast = tested on: MCF7 breast
MDA-MB-231 breast = tested on: MDA-MB-231 breast
MDA-MB-435 = tested on: MDA-MB-435
MDA-MB-468 breast = tested on: MDA-MB-468 breast
MOLT-4 leukemia = tested on: MOLT-4 leukemia
NCI-H226 lung = tested on: NCI-H226 lung
NCI-H23 lung = tested on: NCI-H23 lung
NCI-H460 lung = tested on: NCI-H460 lung
NCI-H522 lung = tested on: NCI-H522 lung
NCI/ADR-RES ovarian = tested on: NCI/ADR-RES ovarian
OVCAR-3 ovarian = tested on: OVCAR-3 ovarian
OVCAR-4 ovarian = tested on: OVCAR-4 ovarian
OVCAR-5 ovarian = tested on: OVCAR-5 ovarian
OVCAR-8 ovarian = tested on: OVCAR-8 ovarian
PC-3 prostate = tested on: PC-3 prostate
RPMI-8226 leukemia = tested on: RPMI-8226 leukemia
RXF 393 renal = tested on: RXF 393 renal
SF-268 CNS = tested on: SF-268 CNS
SF-295 CNS = tested on: SF-295 CNS
SF-539 CNS = tested on: SF-539 CNS
SK-MEL-2 melanoma = tested on: SK-MEL-2 melanoma
SK-MEL-28 melanoma = tested on: SK-MEL-28 melanoma
SK-MEL-5 melanoma = tested on: SK-MEL-5 melanoma
SK-OV-3 ovarian = tested on: SK-OV-3 ovarian
SN12C renal = tested on: SN12C renal
SNB-19 CNS = tested on: SNB-19 CNS
SNB-75 CNS = tested on: SNB-75 CNS
SR leukemia = tested on: SR leukemia
SW-620 colon = tested on: SW-620 colon
T-47D breast = tested on: T-47D breast
TK-10 renal = tested on: TK-10 renal
U251 CNS = tested on: U251 CNS
UACC-257 melanoma = tested on: UACC-257 melanoma
UACC-62 melanoma = tested on: UACC-62 melanoma
UO-31 renal = tested on: UO-31 renal

SMILES: O=C(c1ccc(Cl)cc1)C1[C@H](c2ccccc2Cl)[C@@H](c2ccccc2)NC12C(=O)Nc1ccc(Br)cc12 (stereo partly drawn)
- GI50 (786-0 renal): 16.6 µM
- TGI (786-0 renal): 34.4 µM
- GI50 (A498 renal): 19.9 µM
- TGI (A498 renal): 46.7 µM
- GI50 (A549 NSCLC): 17.5 µM
- TGI (A549 NSCLC): 42.3 µM
- GI50 (ACHN renal): 22.8 µM
- TGI (ACHN renal): 69.5 µM
- GI50 (BT-549 breast): 14.5 µM
- TGI (BT-549 breast): 28 µM
- GI50 (CAKI-1 renal): 14.8 µM
- TGI (CAKI-1 renal): 33.9 µM
- GI50 (CCRF-CEM leukemia): 24.4 µM
- TGI (CCRF-CEM leukemia): 68.2 µM
- GI50 (COLO 205 colon): 17.4 µM
- TGI (COLO 205 colon): 31.6 µM
- GI50 (DU-145 prostate): 19.2 µM
- TGI (DU-145 prostate): 40.5 µM
- GI50 (EKVX NSCLC): 16.6 µM
- TGI (EKVX NSCLC): 44 µM
- GI50 (HCC-2998 colon): 15.5 µM
- TGI (HCC-2998 colon): 31.1 µM
- GI50 (HCT-116 colon): 14.4 µM
- TGI (HCT-116 colon): 27.6 µM
- GI50 (HCT-15 colon): 15.8 µM
- TGI (HCT-15 colon): 30.5 µM
- GI50 (HL-60(TB) leukemia): 20.8 µM
- TGI (HL-60(TB) leukemia): 49.1 µM
- GI50 (HOP-62 NSCLC): 15 µM
- TGI (HOP-62 NSCLC): 30 µM
- GI50 (HOP-92 NSCLC): 15.6 µM
- TGI (HOP-92 NSCLC): 31 µM
- GI50 (HS 578T breast): 16.9 µM
- TGI (HS 578T breast): 42.7 µM
- GI50 (HT29 colon): 17.9 µM
- TGI (HT29 colon): 37 µM
- GI50 (IGROV1 ovarian): 17.1 µM
- TGI (IGROV1 ovarian): 41 µM
- GI50 (K-562 leukemia): 26.8 µM
- TGI (K-562 leukemia): 88.9 µM
- GI50 (KM12 colon): 19.7 µM
- TGI (KM12 colon): 44.7 µM
- GI50 (LOX IMVI melanoma): 15.2 µM
- TGI (LOX IMVI melanoma): 28.5 µM
- GI50 (M14 melanoma): 15.3 µM
- TGI (M14 melanoma): 29.3 µM
- GI50 (MALME-3M melanoma): 15.5 µM
- TGI (MALME-3M melanoma): 29 µM
- GI50 (MCF7 breast): 15.7 µM
- TGI (MCF7 breast): 37.3 µM
- GI50 (MDA-MB-231 breast): 15.6 µM
- TGI (MDA-MB-231 breast): 29.4 µM
- GI50 (MDA-MB-435): 15.2 µM
- TGI (MDA-MB-435): 29.6 µM
- GI50 (MDA-MB-468 breast): 11 µM
- TGI (MDA-MB-468 breast): 26.9 µM
- GI50 (MOLT-4 leukemia): 21.2 µM
- TGI (MOLT-4 leukemia): 61.7 µM
- GI50 (NCI-H226 lung): 14.4 µM
- TGI (NCI-H226 lung): 29.3 µM
- GI50 (NCI-H23 lung): 14.9 µM
- TGI (NCI-H23 lung): 31.1 µM
- GI50 (NCI-H460 lung): 17.7 µM
- TGI (NCI-H460 lung): 35 µM
- GI50 (NCI-H522 lung): 14.1 µM
- TGI (NCI-H522 lung): 29.9 µM
- GI50 (NCI/ADR-RES ovarian): 15.5 µM
- TGI (NCI/ADR-RES ovarian): 30.7 µM
- GI50 (OVCAR-3 ovarian): 15.6 µM
- TGI (OVCAR-3 ovarian): 32.4 µM
- GI50 (OVCAR-4 ovarian): 18.3 µM
- TGI (OVCAR-4 ovarian): 49.7 µM
- GI50 (OVCAR-5 ovarian): 14.9 µM
- TGI (OVCAR-5 ovarian): 29.6 µM
- GI50 (OVCAR-8 ovarian): 17.7 µM
- TGI (OVCAR-8 ovarian): 36.6 µM
- GI50 (PC-3 prostate): 15.7 µM
- TGI (PC-3 prostate): 37.5 µM
- GI50 (RPMI-8226 leukemia): 26 µM
- TGI (RPMI-8226 leukemia): 84.5 µM
- GI50 (RXF 393 renal): 14.1 µM
- TGI (RXF 393 renal): 28.2 µM
- GI50 (SF-268 CNS): 16.6 µM
- TGI (SF-268 CNS): 38.7 µM
- GI50 (SF-295 CNS): 16.5 µM
- TGI (SF-295 CNS): 32.4 µM
- GI50 (SF-539 CNS): 16.5 µM
- TGI (SF-539 CNS): 31.8 µM
- GI50 (SK-MEL-2 melanoma): 15.9 µM
- TGI (SK-MEL-2 melanoma): 31.6 µM
- GI50 (SK-MEL-28 melanoma): 16 µM
- TGI (SK-MEL-28 melanoma): 29.7 µM
- GI50 (SK-MEL-5 melanoma): 16.1 µM
- TGI (SK-MEL-5 melanoma): 29.8 µM
- GI50 (SK-OV-3 ovarian): 24.3 µM
- TGI (SK-OV-3 ovarian): 70.2 µM
- GI50 (SN12C renal): 15 µM
- TGI (SN12C renal): 28.2 µM
- GI50 (SNB-19 CNS): 24.8 µM
- TGI (SNB-19 CNS): 78.3 µM
- GI50 (SNB-75 CNS): 10.5 µM
- TGI (SNB-75 CNS): 35 µM
- GI50 (SR leukemia): 16.5 µM
- TGI (SR leukemia): 41.7 µM
- GI50 (SW-620 colon): 16.1 µM
- TGI (SW-620 colon): 31.4 µM
- GI50 (T-47D breast): 15.2 µM
- TGI (T-47D breast): 30.3 µM
- GI50 (TK-10 renal): 18.3 µM
- TGI (TK-10 renal): 50.6 µM
- GI50 (U251 CNS): 16.1 µM
- TGI (U251 CNS): 29.9 µM
- GI50 (UACC-257 melanoma): 17.6 µM
- TGI (UACC-257 melanoma): 37.8 µM
- GI50 (UACC-62 melanoma): 13.7 µM
- TGI (UACC-62 melanoma): 27 µM
- GI50 (UO-31 renal): 13.4 µM
- TGI (UO-31 renal): 30.6 µM
